In paper PMC2919500 (Biochemistry, 2008):
Read-outs that look alike come from different tables or passages of the source. One block for each compound: values may come before it.

What was measured:
Citrine-AKT1 PH = Citrine-AKT1 PH (Homo sapiens, UniProt P31749); assay: Plasma membrane targeting in live NIH 3T3 cells; format: cell-based; conditions: serum-starved NIH 3T3 cells, 10 nM PDGF 5 min, then 800 nM wortmannin 15 min
RFP-AKT1 E17K PH = RFP-AKT1 E17K PH (Homo sapiens, UniProt P31749, E17K); assay: Plasma membrane targeting in live NIH 3T3 cells; format: cell-based; conditions: serum starvation with inhibitor prior to imaging, data not shown
CFP-PLCδ1 PH = target: T1, CFP-PLCδ1 PH (Homo sapiens, UniProt P51178); assay: Plasma membrane targeting in live NIH 3T3 cells; format: cell-based; conditions: serum starvation with inhibitor prior to imaging, data not shown
T1 sequence (P51178 21-130 limits assumed): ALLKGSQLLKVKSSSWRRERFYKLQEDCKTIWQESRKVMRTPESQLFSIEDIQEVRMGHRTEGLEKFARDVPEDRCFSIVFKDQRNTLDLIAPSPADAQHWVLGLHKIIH

AKT1 E17K PH domain [1] = target: T2, AKT1 E17K PH domain (Homo sapiens, UniProt P31749, E17K); assay: Stopped-flow association and dissociation kinetics
AKT1 PH domain [2] = target: T3, AKT1 PH domain (Homo sapiens, UniProt P31749); assay: IP6 competitive displacement assay
AKT1 E17K PH domain [3] = target: T2, AKT1 E17K PH domain; assay: IP6 competitive displacement assay; conditions: for Ki: read-out: KI(IP6)
PLCδ1 PH domain [4] = target: T4, PLCδ1 PH domain (Mus musculus, UniProt Q8R3B1); assay: IP6 competitive displacement assay
T4 sequence (Q8R3B1 12-142): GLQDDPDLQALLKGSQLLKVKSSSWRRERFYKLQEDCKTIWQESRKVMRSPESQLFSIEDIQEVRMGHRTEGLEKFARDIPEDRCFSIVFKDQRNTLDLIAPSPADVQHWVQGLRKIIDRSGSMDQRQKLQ

AKT1 PH domain [5] = target: T3, AKT1 PH domain; assay: Direct IP6 titration of the free PH domain; conditions: read-out: KD(IP6); free WT AKT1 PH domain, 25 °C, binding buffer pH 7.4
AKT1 E17K PH domain [6] = target: T2, AKT1 E17K PH domain; assay: Direct IP6 titration of the free PH domain; format: binding
PLCδ1 PH domain [7] = target: T4, PLCδ1 PH domain; assay: Direct IP6 titration of the free PH domain; conditions: read-out: KD(IP6), 25 °C, binding buffer pH 7.4

T3 sequence (P31749 1-120): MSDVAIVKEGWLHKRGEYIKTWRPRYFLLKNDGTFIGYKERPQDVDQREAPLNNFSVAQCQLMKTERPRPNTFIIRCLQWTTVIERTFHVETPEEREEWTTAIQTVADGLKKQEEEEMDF
T2 sequence (P31749 1-120 E17K): as the sequence (P31749 1-120) above, with E17K counted along it
Chain of RFP-AKT1 E17K PH (P31749 5-108 E17K limits assumed): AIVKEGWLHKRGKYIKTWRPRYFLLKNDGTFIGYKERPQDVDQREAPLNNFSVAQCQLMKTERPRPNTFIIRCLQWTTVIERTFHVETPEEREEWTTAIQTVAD
Chain of Citrine-AKT1 PH (P31749 5-108 limits assumed): as the sequence (P31749 5-108 E17K limits assumed) above, with K13E counted along it

Compound: COC[C@H]1OC(=O)c2coc3c2[C@@]1(C)C1=C(C3=O)[C@@H]2CCC(=O)[C@@]2(C)C[C@H]1OC(C)=O [wortmannin]
localization of the WT AKT1 PH domain after PI3K inhibition (Citrine-AKT1 PH): returns to the cytoplasm
constitutive plasma membrane targeting in the presence of a PI3K inhibitor (RFP-AKT1 E17K PH): not disrupted
constitutive plasma membrane targeting in the presence of a PI3K inhibitor (CFP-PLCδ1 PH): not disrupted

kon (AKT1 E17K PH domain [1]; 0.5 µM protein, 200 µM total lipid, 25 °C): 1.3 ± 0.1 ×10^7 M^−1 s^−1
koff (AKT1 E17K PH domain [1]; dissociation with excess IP6 (40 mM), 25 °C): 1.5 ± 0.1 s⁻¹
Kd (AKT1 E17K PH domain [1]; read-out: KD (koff/kon), calculated from the rate constants): 0.12 ± 0.01 µM
Kd (AKT1 PH domain [2]; read-out: KD(PIPn), WT AKT1 PH, PIP lipid embedded in synthetic plasma membrane, from KD(IP6) and KI(IP6)): > 10 µM
affinity enhancement by E17K larger than for the other two ligands (AKT1 E17K PH domain [3]; PI(4,5)P2 versus IP6 and PI(3,4,5)P3): at least 10 fold
Kd (AKT1 E17K PH domain [3]; read-out: KD(PIPn), AKT1 E17K PH, PIP lipid embedded in synthetic plasma membrane, from KD(IP6) and KI(IP6)): 0.13 ± 0.03 µM
Kd (PLCδ1 PH domain [4]; read-out: KD(PIPn), PLCδ1 PH, PIP lipid embedded in synthetic plasma membrane, from KD(IP6) and KI(IP6)): 0.19 ± 0.07 µM
Compound: L-α-phosphatidylinositol 4,5-bisphosphate [PI(4,5)P2]

Kd (AKT1 PH domain [5]): 260 ± 50 µM
Kd (AKT1 E17K PH domain [6]; read-out: KD(IP6), free AKT1 E17K PH domain, 25 °C, binding buffer pH 7.4): 11 ± 1 µM
additional IP6 binding free energy from the E17K mutation (AKT1 E17K PH domain [6]; ΔΔG, E17K versus WT AKT1 PH): 3.0 RT
Kd (PLCδ1 PH domain [7]): 3 ± 0.2 µM
Ki (AKT1 PH domain [2]; read-out: KI(IP6), displacement of AKT1 PH from PM(+)PI(3,4,5)P3): 28000 ± 1000 µM
Ki (AKT1 E17K PH domain [3]; displacement of AKT1 E17K PH from PM(+)PI(3,4,5)P3): 8000 ± 2000 µM
Ki (AKT1 E17K PH domain [3]; displacement of AKT1 E17K PH from PM(+)PI(4,5)P2): 210 ± 10 µM
Ki (PLCδ1 PH domain [4]; read-out: KI(IP6), displacement of PLCδ1 PH from PM(+)PI(4,5)P2): 47 ± 4 µM
Compound: O=P(O)(O)OC1C(OP(=O)(O)O)C(OP(=O)(O)O)C(OP(=O)(O)O)C(OP(=O)(O)O)C1OP(=O)(O)O (stereo not drawn) [IP6, inositol 1,2,3,4,5,6-hexakisphosphate]
